Consider 2 compounds from patent US10815274B2, “Immunogenic WT-1 peptides and methods of use thereof” (Memorial Sloan Kettering Cancer Center, priority 2012, dated 2020).

Where a SMILES comes first, the peptide text is derived from it.

The test system of series [1] is T-cells sensitized with the WT1 total pool. As to the kind of experiment: IFNγ production by WT1 specific T-cells (FACS of intracellular IFNγ) after secondary stimulation with peptide loaded autologous PBMC; epitope mapping. In kind it is cell-based, human. As to the method:
To generate WT1-specific CTLs, PBMC were isolated by Ficoll-Hypaque density gradient centrifugation. Monocytes were depleted by adherence on plastic and NK cells by absorption to immunomagnetic CD56 pre-coated microbeads (Miltenyi Biotech Inc, MA) as previously described (32). Enriched T-cell fractions were stimulated at a 20:1 responder:stimulator ratio with autologous CAMs or EBV-BLCL that had been pre-loaded for 3 hours with the total pool of the WT1 pentadecapeptides in serum-free medium and irradiated to 3000 cGy.
T-cell responses to each subpool were quantitated by FACS analysis of T-cells bearing intracellular IFNγ as previously described (41). The mapping grid (FIG. 2B) was then used to identify specific WT1 15-mers uniquely shared by 2 subpools eliciting T-cell responses.

The test system of another series is WT1- autologous APC. As to the kind of experiment: Cr51 release assay, cytotoxic CTL response vs unmodified autologous APC. It counts as cell-based, human. The following applies: 50:1 E:T.
The subject of series [2] is WT1 peptide loaded autologous APC. In words: Cr51 release assay, cytotoxic CTL response vs peptide loaded autologous APC. It counts as cell-based, human. The following applies: 50:1 E:T.
The next series concerns WT1- leukemia. In words: Cr51 release assay, cytotoxic CTL response vs WT1- leukemia. The following applies: 50:1 E:T. In kind it is cell-based, human.
Another series has as its system WT1+ leukemia. In words: Cr51 release assay, cytotoxic CTL response vs WT1+ leukemia expressing restricting HLA allele. It counts as cell-based, human. The note with it: for Cytotoxic CTL response, % vs WT1+ leukemia: 50:1 E:T.
Series [3] concerns WT1- allo APC with restricting HLA allele. As to the kind of experiment: Cr51 release assay, cytotoxic CTL response vs unloaded allogeneic APC sharing restricting HLA allele. In kind it is cell-based, human. The following applies: 50:1 E:T.
Series [4] relates to WT1+ allo APC with restricting HLA allele loaded with WT1 peptide. As to the kind of experiment: Cr51 release assay, cytotoxic CTL response vs peptide loaded allogeneic APC sharing restricting HLA allele (HLA restriction). The note with it: 50:1 E:T.

For “NLYQMTSQLE (listed as Homo sapiens) [SEQ ID NO: 170]”, in series [1] (HLA allele A0201), the “IFNg response of cells, % IFNg+ cells: No WT1 peptide” value is 0.13% and the “IFNg response of cells, % IFNg+ cells: WT1 peptide loaded” value turned out to be 0.9%. Besides, in the series with WT1- autologous APC (HLA allele A0201), the “Cytotoxic CTL response, % vs WT1- autologous APC” value was 3%. Besides, in series [2] (HLA allele A0201), the “Cytotoxic CTL response, % vs WT1 peptide loaded autologous APC” value came to 87%. In addition, the “Cytotoxic CTL response, % vs WT1- leukemia” value in the series with WT1- leukemia (HLA allele A0201) came out at 0%. For the same compound, the “Cytotoxic CTL response, % vs WT1+ leukemia” value in the series on WT1+ leukemia (HLA allele A0201) is given as 0%. Also, the “Lysis of HLA-A0201+ WT1+ leukemic cells” value in the series on WT1+ leukemia (peptide presented by HLA A0201) is on record as “could not lyse”. Further, the “Cytotoxic CTL response, % vs WT1- allo APC with restricting HLA allele” value in series [3] (HLA allele A0201) was 3%. The “Cytotoxic CTL response, % vs WT1+ allo APC with restricting HLA allele loaded with WT1 peptide” value in series [4] (HLA allele A0201) was determined as 28%.
For the compound `CSCC[C@H](NC(=O)[C@H](CCC(N)=O)NC(=O)[C@H](CC(N)=O)NC(=O)[C@H](Cc1c[nH]c2ccccc12)NC(=O)[C@@H](NC(=O)[C@H](CCSC)NC(=O)[C@@H](N)CS)[C@@H](C)O)C(=O)N[C@@H](CC(N)=O)C(=O)N[C@@H](CC(C)C)C(=O)NCC(=O)N[C@@H](C)C(=O)N[C@H](C(=O)N[C@@H](CC(C)C)C(=O)N[C@@H](CCCCN)C(=O)NCC(=O)O)[C@@H](C)O` [SEQ ID NO: 174] (H-CMTWNQMNLGATLKG-OH), the “CD4+ and CD8+ T-cell responses to specific 15-mers” value in series [1] (4 of the 56 donors tested) was “both CD4+ and CD8+ T-cell responses”. In series [1] (HLA allele DRB10402), the “IFNg response of cells, % IFNg+ cells: No WT1 peptide” value is listed as 0.07% and the “IFNg response of cells, % IFNg+ cells: WT1 peptide loaded” value came to 0.53%. Moreover, the “CD4+ T-cell responses” value in series [1] (restricted by HLA DRB1 0402) is on record as “elicited CD4+ T-cell responses”. The “Cytotoxic CTL response, % vs WT1- autologous APC” value in the series with WT1- autologous APC (HLA allele DRB10402) is 4%. Also, in series [2] (HLA allele DRB10402), the “Cytotoxic CTL response, % vs WT1 peptide loaded autologous APC” value was found to be 16%. The “Cytotoxic CTL response, % vs WT1- leukemia” value in the series on WT1- leukemia (HLA allele DRB10402) is 1%. Also, the “Cytotoxic CTL response, % vs WT1+ leukemia” value in the series on WT1+ leukemia (HLA allele DRB10402) is on record as 17%. In addition, in series [3] (HLA allele DRB10402), the “Cytotoxic CTL response, % vs WT1- allo APC with restricting HLA allele” value was found to be 2%. In addition, the “Cytotoxic CTL response, % vs WT1+ allo APC with restricting HLA allele loaded with WT1 peptide” value in series [4] (HLA allele DRB10402) is 15%.
